{"source": "patent US20120204273A1", "about": "“COMPOSITIONS RELATING TO A PHOSPHOPROTEIN AND METHODS OF USE” (SANFORD-BURNHAM MEDICAL RESEARCH INSTITUTE, priority 2010, published 2012)", "test_system": "CDP138", "experiment": "SILAC quantitative phosphoproteomics with PAS antibody immunoprecipitation in 3T3-L1 adipocytes", "assay_type": "cell-based, mouse", "details": "insulin-stimulated adipocytes", "protocol": "Preparation of the Triple-Labeling SILAC Media. Arginine- and lysine-free DMEM was divided into three equal portions and 28 mg/liter of the three Arginine isotopes were added separately to make the Arg-0, Arg-6, and Arg-10 media, respectively. In addition, 48.7 mg/liter L-lysine, L-lysine-D4, and L-lysine13C6, 15N2 were supplemented separately to the three lots containing Arg-0, Arg-6, and Arg-10. Finally, glutamine and antibiotics were added to the media together with the full complement of amino acids (Arg-0/Lys-H4, Arg-6/Lys-D4, and Arg-10/Lys-8) and then sterile-filtered (Millipore). The sterile media were separated into two portions for dialyzed serum-containing and serum free media.\nMass Spectrometric Analysis. For SILAC quantitative proteomic study, the mixture of total lysates from the 3 different groups (as shown in FIG. 1A) was used for immunoprecipitation with PAS antibodies. Enriched proteins were resolved by SDS-PAGE. […] Only proteins that had at least 2 ion scores >20 were identified and quantified. MaxQuant was used to verify and quantify the resulting peptide pairs.\nIdentification of CDP138 as a novel Akt2 substrate using SILAC-based quantitative proteomics. […] The tryptic peptides were subsequently analyzed by tandem mass spectrometry (MS). […]", "data": [{"substance": "insulin", "values": [{"measurement": "enrichment of CDP138 in PAS immunoprecipitate", "value": 2.8, "unit": "fold"}]}]}
